Experimental data reported in ChEMBL document CHEMBL1287797, “Design and synthesis of harzialactone analogues: promising anticancer agents” (2010).

Experiments:
Assay type in all cases: functional
ZR-75-1 [1] = assay: Anticancer activity against human ZR-75-1 cells assessed as inhibition of cell growth at 100ug/ml by MTT assay
ZR-75-1 [2] = assay: Anticancer activity against human ZR-75-1 cells assessed as inhibition of cell growth at 10 ug/ml by MTT assay
[3] = Anticancer activity against mouse P388D1 cells assessed as inhibition of cell growth at 20 ug/ml by MTT assay
HeLa [4] = assay: Anticancer activity against human HeLa cells assessed as inhibition of cell growth at 100ug/ml by MTT assay
COLO 205 [5] = assay: Anticancer activity against human COLO205 cells assessed as inhibition of cell growth at 100ug/ml by MTT assay
HL-60 [6] = assay: Anticancer activity against human HL60 cells assessed as inhibition of cell growth at 20 ug/ml by MTT assay
HL-60 [7] = assay: Anticancer activity against human HL60 cells assessed as inhibition of cell growth at 80 ug/ml by MTT assay
[8] = Anticancer activity against mouse P388D1 cells assessed as inhibition of cell growth at 40 ug/ml by MTT assay
HL-60 [9] = assay: Anticancer activity against human HL60 cells assessed as inhibition of cell growth at 40 ug/ml by MTT assay
ZR-75-1 [10] = assay: Anticancer activity against human ZR-75-1 cells assessed as inhibition of cell growth at 5 ug/ml by MTT assay
HL-60 [11] = assay: Anticancer activity against human HL60 cells assessed as inhibition of cell growth at 100ug/ml by MTT assay
COLO 205 [12] = assay: Anticancer activity against human COLO205 cells assessed as inhibition of cell growth at 10 ug/ml by MTT assay
HeLa [13] = assay: Anticancer activity against human HeLa cells assessed as inhibition of cell growth at 40 ug/ml by MTT assay
HL-60 [14] = assay: Anticancer activity against human HL60 cells assessed as inhibition of cell growth at 5 ug/ml by MTT assay
COLO 205 [15] = assay: Anticancer activity against human COLO205 cells assessed as inhibition of cell growth at 40 ug/ml by MTT assay
COLO 205 [16] = assay: Anticancer activity against human COLO205 cells assessed as inhibition of cell growth at 60 ug/ml by MTT assay
ZR-75-1 [17] = assay: Anticancer activity against human ZR-75-1 cells assessed as inhibition of cell growth at 20 ug/ml by MTT assay
[18] = Anticancer activity against mouse P388D1 cells assessed as inhibition of cell growth at 5 ug/ml by MTT assay
COLO 205 [19] = assay: Anticancer activity against human COLO205 cells assessed as inhibition of cell growth at 20 ug/ml by MTT assay
[20] = Anticancer activity against mouse P388D1 cells assessed as inhibition of cell growth at 80 ug/ml by MTT assay
COLO 205 [21] = assay: Anticancer activity against human COLO205 cells assessed as inhibition of cell growth at 80 ug/ml by MTT assay
[22] = Anticancer activity against mouse P388D1 cells assessed as inhibition of cell growth at 100ug/ml by MTT assay
HeLa [23] = assay: Anticancer activity against human HeLa cells assessed as inhibition of cell growth at 60 ug/ml by MTT assay
HeLa [24] = assay: Anticancer activity against human HeLa cells assessed as inhibition of cell growth at 80 ug/ml by MTT assay
ZR-75-1 [25] = assay: Anticancer activity against human ZR-75-1 cells assessed as inhibition of cell growth at 80 ug/ml by MTT assay
HeLa [26] = assay: Anticancer activity against human HeLa cells assessed as inhibition of cell growth at 5 ug/ml by MTT assay
HL-60 [27] = assay: Anticancer activity against human HL60 cells assessed as inhibition of cell growth at 10 ug/ml by MTT assay
HeLa [28] = assay: Anticancer activity against human HeLa cells assessed as inhibition of cell growth at 10 ug/ml by MTT assay
ZR-75-1 [29] = assay: Anticancer activity against human ZR-75-1 cells assessed as inhibition of cell growth at 60 ug/ml by MTT assay
HL-60 [30] = assay: Anticancer activity against human HL60 cells assessed as inhibition of cell growth at 60 ug/ml by MTT assay
HeLa [31] = assay: Anticancer activity against human HeLa cells assessed as inhibition of cell growth at 20 ug/ml by MTT assay
[32] = Anticancer activity against mouse P388D1 cells assessed as inhibition of cell growth at 10 ug/ml by MTT assay
ZR-75-1 [33] = assay: Anticancer activity against human ZR-75-1 cells assessed as inhibition of cell growth at 40 ug/ml by MTT assay
COLO 205 [34] = assay: Anticancer activity against human COLO205 cells assessed as inhibition of cell growth at 5 ug/ml by MTT assay
[35] = Anticancer activity against mouse P388D1 cells assessed as inhibition of cell growth at 60 ug/ml by MTT assay

Structure (SMILES): O=C1O[C@@H](CCc2ccccc2)C[C@H]1O
- inhibition at 100 µg/mL (ZR-75-1 [1]): 50.7%
- inhibition at 10 µg/mL (ZR-75-1 [2]): 35.7%
- inhibition at 20 µg/mL [3]: 35.2%
- inhibition at 100 µg/mL (HeLa [4]): 62.4%
- inhibition at 100 µg/mL (COLO 205 [5]): 69.3%
- inhibition at 20 µg/mL (HL-60 [6]): 36.8%
- inhibition at 80 µg/mL (HL-60 [7]): 43.2%
- inhibition at 40 µg/mL [8]: 37.6%
- inhibition at 40 µg/mL (HL-60 [9]): 38.7%
- inhibition at 5 µg/mL (ZR-75-1 [10]): 29.5%
- inhibition at 100 µg/mL (HL-60 [11]): 49%
- inhibition at 10 µg/mL (COLO 205 [12]): 16.8%
- inhibition at 40 µg/mL (HeLa [13]): 34%
- inhibition at 5 µg/mL (HL-60 [14]): 28.4%
- inhibition at 40 µg/mL (COLO 205 [15]): 25.4%
- inhibition at 60 µg/mL (COLO 205 [16]): 36%
- inhibition at 20 µg/mL (ZR-75-1 [17]): 36.1%
- inhibition at 5 µg/mL [18]: 27.8%
- inhibition at 20 µg/mL (COLO 205 [19]): 22.8%
- inhibition at 80 µg/mL [20]: 40%
- inhibition at 80 µg/mL (COLO 205 [21]): 65.3%
- inhibition at 100 µg/mL [22]: 45.1%
- inhibition at 60 µg/mL (HeLa [23]): 39%
- inhibition at 80 µg/mL (HeLa [24]): 41%
- inhibition at 80 µg/mL (ZR-75-1 [25]): 43.6%
- inhibition at 5 µg/mL (HeLa [26]): 23.4%
- inhibition at 10 µg/mL (HL-60 [27]): 31%
- inhibition at 10 µg/mL (HeLa [28]): 31.3%
- inhibition at 60 µg/mL (ZR-75-1 [29]): 37.9%
- inhibition at 60 µg/mL (HL-60 [30]): 40%
- inhibition at 20 µg/mL (HeLa [31]): 31.3%
- inhibition at 10 µg/mL [32]: 31.5%
- inhibition at 40 µg/mL (ZR-75-1 [33]): 37.4%
- inhibition at 5 µg/mL (COLO 205 [34]): 9.18%
- inhibition at 60 µg/mL [35]: 38.3%

Structure (SMILES): O=C1O[C@@H](CCc2ccc(Br)cc2)C[C@H]1O
- inhibition at 100 µg/mL (ZR-75-1 [1]): 42.3%
- inhibition at 10 µg/mL (ZR-75-1 [2]): 33%
- inhibition at 20 µg/mL [3]: 31.5%
- inhibition at 100 µg/mL (HeLa [4]): 69.1%
- inhibition at 100 µg/mL (COLO 205 [5]): 75.8%
- inhibition at 20 µg/mL (HL-60 [6]): 24.5%
- inhibition at 80 µg/mL (HL-60 [7]): 47.7%
- inhibition at 40 µg/mL [8]: 34.6%
- inhibition at 40 µg/mL (HL-60 [9]): 39.4%
- inhibition at 5 µg/mL (ZR-75-1 [10]): 20.9%
- inhibition at 100 µg/mL (HL-60 [11]): 52.9%
- inhibition at 10 µg/mL (COLO 205 [12]): 26.2%
- inhibition at 40 µg/mL (HeLa [13]): 57.5%
- inhibition at 5 µg/mL (HL-60 [14]): 20.6%
- inhibition at 40 µg/mL (COLO 205 [15]): 40.9%
- inhibition at 60 µg/mL (COLO 205 [16]): 43.3%
- inhibition at 20 µg/mL (ZR-75-1 [17]): 35.2%
- inhibition at 5 µg/mL [18]: 10.5%
- inhibition at 20 µg/mL (COLO 205 [19]): 29.4%
- inhibition at 80 µg/mL [20]: 40.7%
- inhibition at 80 µg/mL (COLO 205 [21]): 72.2%
- inhibition at 100 µg/mL [22]: 52.5%
- inhibition at 60 µg/mL (HeLa [23]): 60.6%
- inhibition at 80 µg/mL (HeLa [24]): 62.5%
- inhibition at 80 µg/mL (ZR-75-1 [25]): 38.3%
- inhibition at 5 µg/mL (HeLa [26]): 52.3%
- inhibition at 10 µg/mL (HL-60 [27]): 22.6%
- inhibition at 10 µg/mL (HeLa [28]): 52.5%
- inhibition at 60 µg/mL (ZR-75-1 [29]): 37%
- inhibition at 60 µg/mL (HL-60 [30]): 32.6%
- inhibition at 20 µg/mL (HeLa [31]): 54.4%
- inhibition at 10 µg/mL [32]: 25.9%
- inhibition at 40 µg/mL (ZR-75-1 [33]): 36.6%
- inhibition at 5 µg/mL (COLO 205 [34]): 23.1%
- inhibition at 60 µg/mL [35]: 40.1%

Structure (SMILES): CO[C@@]12[C@H](COC(N)=O)C3=C(C(=O)C(C)=C(N)C3=O)N1C[C@@H]1N[C@@H]12 [MITOMYCIN]
- inhibition at 5 µg/mL (ZR-75-1 [10]): 51.3%
- inhibition at 5 µg/mL (HL-60 [14]): 53.2%
- inhibition at 5 µg/mL [18]: 55.4%
- inhibition at 5 µg/mL (HeLa [26]): 56.5%
- inhibition at 5 µg/mL (COLO 205 [34]): 56.3%
